The values that follow come from patent US4055637A, “Medicinal preparation for healing wounds and treating dermatites using 1-(chloromethyl)silatrane” (priority 1975, dated 1977).

A short description of this data set: solubility and physical properties of the active principle. It counts as physicochemical.

Regarding `ClC[Si]12OCCN(CCO1)CCO2` [1-(chloromethyl)silatrane], the solubility in alcohol result (alcohol) is recorded as “difficultly soluble”. Under “chloroform”, the solubility in chloroform entry is on record as “readily soluble”. Where the note is “dry state”, the sterilizability entry is listed as “sterilizable in a dry state”. Further, the solubility in ether entry (ether) was “insoluble”. Moreover, the solubility in water result (water) is “poorly soluble”. Also, under “white crystalline powder”, the hygroscopicity entry is on record as “non-hygroscopic”.
